25 compounds from BindingDB's records for doi:10.1021/jm00083a002 (Ici Pharmaceuticals Group, 1992) can be followed below.

Assay [1] concerns the target Prolyl 4-hydroxylase (Gallus gallus). In words: ChEBML_157453. From the text: Inhibition of prolyl 4-hydroxylase activity by an indirect assay
For assay [2], the target named is prolyl 4-hydroxylase (Gallus gallus). In words: Compound was evaluated for inhibition of Prolyl 4-hydroxylase activity in cultured embryonic chick tendon cells.

What is called IC50 is the concentration at which inhibition is half-maximal. `O=C(Nc1ccccc1F)c1ccc(C(=O)O)nc1` came in with an IC50 in assay [1] of 11 µM.

Consider `CCOc1ccccc1NC(=O)c1ccc(C(=O)O)nc1`, for which, in assay [1], it took 32.9 µM to reach half-maximal inhibition (IC50). Consider `O=C(Nc1cccc(Cl)c1)c1ccc(C(=O)O)nc1`, for which it took 32.2 µM to reach half-maximal inhibition in assay [1] (IC50).

Consider `CN(C)c1ccc(C(=O)Nc2ccc(C(=O)O)nc2)cc1`, for which the IC50 in assay [1] is 11.3 µM. Same read-out and setting: the figure for `COc1cc(NC(=O)c2ccc(C(=O)O)nc2)cc(OC)c1OC` is 26.5 µM; for `O=C(Nc1ccc([N+](=O)[O-])cc1)c1ccc(C(=O)O)nc1` it is 44 µM. Turning to `O=C(O)c1ccc(NCc2ccc(F)cc2)cn1`, the IC50 in assay [1] was found to be 31 µM; in assay [2], 80 µM.

`O=C(Nc1ccc(F)cc1)c1ccc(C(=O)O)nc1`: in assay [1], it took 16.1 µM to reach half-maximal inhibition (IC50). This lies in the double-digit micromolar range. On to `O=C(O)c1ccc(/C=C/c2ccc(Cl)cc2)cn1`, for which the midpoint of inhibition in assay [1], the IC50, lay at 150 µM. Turning to `O=C(Nc1ccc(C(=O)O)nc1)c1ccc(F)cc1`, half-maximal inhibition in assay [1] (IC50) was put at 51.2 µM.

In turn, `O=C(O)c1ccc(NC(=O)c2ccccc2F)cn1` registered an IC50 in assay [1] of 33.8 µM. This IC50 is about 1.5-fold lower than that of the compound before. As to `O=C(Nc1ccc(C(=O)O)nc1)c1ccccc1`, in assay [1], the IC50 was found to be 25.6 µM. Same read-out and setting: the figure for `CCOc1ccc(C(=O)Nc2ccc(C(=O)O)nc2)cc1` is 11.2 µM.

Turning to `CCOc1ccc(NC(=O)c2ccc(C(=O)O)nc2)cc1`, in assay [1], the IC50 was 5 µM. This IC50 is about 2.2-fold lower than that of the compound before. Consider `O=C(O)c1ccc(OCc2ccccc2)cn1`, for which the IC50 in assay [1] came to 39 µM. Still for that read-out and setting: the figure for `O=C(Nc1ccc(Cl)cc1)c1ccc(C(=O)O)nc1` is 17.4 µM; for `COc1ccccc1NC(=O)c1ccc(C(=O)O)nc1` it is 14.8 µM; for `Cc1ccc(C(=O)Nc2ccc(C(=O)O)nc2)cc1` it is 16.5 µM.

As for `O=C(Nc1ccc(C(=O)O)nc1)c1ccc(Cl)cc1`, half-maximal inhibition in assay [1] (IC50) required 22.5 µM. Still for that read-out and setting: for `COc1ccc(NC(=O)c2ccc(C(=O)O)nc2)c(OC)c1` the value was 16.6 µM; for `Cc1ccc(NC(=O)c2ccc(C(=O)O)nc2)cc1`, 8.3 µM. Same read-out and setting: for `CN(C)c1ccc(NC(=O)c2ccc(C(=O)O)nc2)cc1` the value was 4.1 µM; for `O=C(Nc1ccccc1)c1ccc(C(=O)O)nc1`, 26.5 µM. `O=C(Nc1ccccc1Cl)c1ccc(C(=O)O)nc1` registered a half-inhibitory concentration (IC50) in assay [1] of 16.3 µM.

Turning to `COc1ccc(NC(=O)c2ccc(C(=O)O)nc2)cc1`, in assay [1], the IC50 was determined as 21.1 µM.
